The subject of assay [1] is JNK, p38, AKT, ERK1/2, STAT3. In words: Immunoblot of phosphorylated MAPKs, STAT3 and Akt in treated TNBC cells. The class given is cell-based, human. The settings on record: MDA-MB-231 5 µM, 1 h, BT-549 1 µM, 3 h. On the procedure:
MDA-MB-231 cells were incubated with compound 24 (5 µM, 1 h), then washed with cold PBS-vanadate (1 mM). The same process was done with BT-549 cells with the exception that the cells were incubated with compound 24 at 1 µM of 3 h. PRDX1 knockdown cells, or compound 24 treated cells, were then lysed with cold RIPA containing protease and phosphatase inhibitors or with a buffer containing 20 mM Tris-HCI, pH = 7, 140 mM NaCl, 50 mM EDTA, 10% glycerol, 1% NP-40, and protease and phosphatase inhibitors. Lysates were centrifuged at 20,000 × g, at 4 °C for 10 min, and supernatants were collected. Protein concentration of lysis extracts was measured by BCA. Electrophoresis sample buffer containing 10% β-mercaptoethanol was added to 60 µg of extracts. In the case of non-reducing electrophoresis, cells were incubated with cold PBS containing 25 mM NEM for 30 min before lysis, and β-mercaptoethanol was omitted in the electrophoresis sample buffer. Samples were separated by sodium dodecyl sulfate - polyacrylamide gel electrophoresis (SDS-PAGE) and transferred onto nitrocellulose or PVDF (polyvinylidene difluoride) membranes. […] Protein bands were visualized with the Immun-Star Western chemiluminescence kit (Bio-rad) using the ChemiDoc XRS System and the image analysis program Quantity One (Bio-Rad). […]

Assay [2] concerns the target T1, PRDX1 (Homo sapiens, UniProt Q06830).
T1 construct: treatment of untreated MDA-MB-231 cell lysates with a resin coupled to compound 24; endogenous in cells; host or cells: MDA-MB-231 (ATCC HTB-26)
T1 sequence (Q06830 1-199): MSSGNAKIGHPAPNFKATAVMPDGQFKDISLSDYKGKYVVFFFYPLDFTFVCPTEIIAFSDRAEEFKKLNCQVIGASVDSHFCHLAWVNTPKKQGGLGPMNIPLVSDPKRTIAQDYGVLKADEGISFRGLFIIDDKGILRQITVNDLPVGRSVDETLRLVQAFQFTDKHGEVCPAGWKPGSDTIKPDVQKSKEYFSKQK
As to the kind of experiment: Western blot of monomeric/dimeric and oxidized forms of PRDX1 in treated cells. To be noted: 1 µM, MDA-MB-231 cells. The format is cell-based. As to the method: To that end, compound 24 1 µM was added to MDA-MB-231 cells and followed by Western Blot analysis. β-actin was used as control.
Non-reducing and reducing conditions used are those commonly used to assess the status of PRDX1 (see ref. 34 and 35) ref. 35
Background: A western blot detects proteins with antibodies after separation by electrophoresis.

The target in assay [3] is T1, PRDX1. In words: Competitive immunoprecipitation / immunoblot for PRDX1 with compound-coupled resin. The format is binding. The settings on record: untreated MDA-MB-231 cell lysates; not trapped from lysates pre-treated with unbound compound. From the text:
As indicated in the brief description of the figures, the treatment of untreated MDA-MB-231 cell lysates with a resin coupled to compound 24 (24-coupled resin) were subjected to immunoprecipitation analysis for PRDX1 [for the methodology to perform immunoprecipitation and western blot analysis of PRDXs see Am J Physiol Heart Circ Physiol. 2008 Jul; 295(1): H425-H433 (ref. 34); and Oncogene. 2013 November 7; 32(45): 5302-5314 (ref. 35)].

Assay [4] has as its system PANC-1. In words: MTT cell viability assay, PANC-1 cells. The format is cell-based. To be noted: Homo sapiens, 48 h drug exposure. As to the method: PANC-1 [American Type Culture Collection (ATCC) reference number CRL-1469]. This a human cancer cell line derived from the pancreas of a person.
(§1) Cell viability was assayed by measuring the mitochondrial reduction of the tetrazolium salt 3-(4,5-methyltiazol-2yl)-2,5diphenyl-tetrazolium bromide] (MTT) (Applichen; A2231,0010) [Mosmann T. J Immunol Methods. 1983 16;65(1-2):55-63 (ref. 36); Chuan Y-C et al 2010. Oncogene. 29 (10), 1531-1542 (ref. 37)]. Cells were seeded in 96-well plates in medium (either RPMI, DMEM or McCoys depending on the recommendations from the ATCC) supplemented with 10% FBS (Lonza Cat. N°: 14-502F), 2mM L-Glut (Lonza Cat. N°: BE17-605E) and 100U/ml PEST (Lonza Cat. N°: DE17-605E) at a cell density of 1000-5000 cells/well (96 well plate). Cells were seeded at a density according to their exponential growth phase (normally 1000 to 5000/well). The cells were cultured at 37 °C in the dark in air containing 5% CO2. After 24h either vehicle (0.05% DMSO) or drug were added to culture medium at the indicated concentrations (10 to 0,01microM). After another 48 h, MTT (0.3 mg/ml) was added to cells, followed by incubation for 2-4h at 37 °C in the dark. The medium was then removed and the precipitated formazan was solubilized by the addition of DMSO (200 µL).
(§2) The optical density was measured at 595 nm with the iMark Microplate Reader (BioRad, USA). Data was expressed as percent growth above the level in controls and the results in figures were plotted as means ± SEM of each test point from 3 replicates.
(§3) Statistical analysis. The concentration of drug that provokes 50% reduction of cell viability (IC50) was determined by using non-linear regression analysis and data were fitted to a log concentration vs normalized response curve in GraphPad software v5 (San Diego, CA).
(Tetrazolium assays rely on reduction of a dye to a coloured formazan, in cell work by metabolically active cells.)

Assay [5] relates to HEL 92.1.7. In words: MTT cell viability assay, HEL cells. The class given is cell-based. To be noted: Homo sapiens, 48 h drug exposure. A digest of the protocol:
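Human erythroleukemia HEL 92.1.7 cells, 1000-5000 cells/well in 10% FBS medium, treated 24 h after seeding with compound (10 to 0,01microM) or 0.05% DMSO for 48 h. MTT (0.3 mg/ml) 2-4h at 37 °C, OD 595 nm; IC50 by non-linear regression of log concentration vs normalized response, 3 replicates.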

The subject of assay [6] is MCF-7. As to the kind of experiment: MTT cell viability assay, MCF-7 cells. The format is cell-based. The settings on record: Homo sapiens, MCF7, 48 h drug exposure. As to the method: as §1, §2, §3

As usually defined, the IC50 is the concentration at which inhibition is half-maximal. Read a high IC50 as a need for much substance. Regarding `O=C1C2=C(C(=O)c3c(O)ccc(O)c31)N(c1cccnc1)Cc1ccccc1O2` [Compound 24, 7,10-dihydroxy-12-(pyridin-3-yl)-12,13-dihydrobenzo[f]naphtho[2,3-b][1,4]oxazepine-6,11-dione], in assay [1], the “activation of STAT3” value is given as “a decrease in the activation of STAT3”. Besides, the “levels of activated JNK, p38, AKT and ERK1/2” value in assay [1] was “an increase in the levels of activated JNK, p38, AKT and ERK1/2”. For the same compound, the “conversion of PRDX1 monomeric form into dimeric form” value in assay [2] (non-reducing conditions) was “a rapid conversion of PRDX1 from its basal active monomeric form, into its inactive dimeric form”. The “levels of hyperoxidized PRDX1 (SO2/3-Prdx)” value in assay [2] (reducing conditions) was “a significant increase in the levels of inactive hyperoxidized 2-cystiene PRDX1”. In addition, the “trapping of PRDX1 by compound-coupled resin” value in assay [3] is “PRDX1 was clearly trapped by the 24-coupled resin”. The IC50 in assay [4] was 0.32 µM; in assay [5], 0.09 µM; in assay [6], 1.72 µM.
